Patent US9708314B2, “Heterocyclic amide compound” (NISSAN CHEMICAL INDUSTRIES, LTD., priority 2013, dated 2017)

How the values were obtained:
Assay type in all cases: in vivo
[1] = test system: directly sowed Oryza sativa; assay: Test Example 4: effect on crop by application to foliage (diluvial soil, plastic box); details: foliage application, 131 g/ha
How it was run: (§1)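 Greenhouse plants (25° C. to 30° C., 14 d, diluvial soil) receive a foliar spray of water-diluted emulsifiable formulation at defined g/ha. Grading after 3 weeks uses a six-step herbicidal-ratio scale, with 4 covering 70% to <90% and 1 covering 5% to <20%.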

Glycine max = assay: as above; details: foliage application
How it was run: as §1

Brassica campestris L. = assay: as above; details: foliage application
How it was run: as §1

Triticum aestivum = assay: as above; details: foliage application
How it was run: as §1

[2] = test system: Beta vulgaris ssp. vulgaris; assay: as above; details: foliage application
How it was run: as §1

Zea mays = assay: as above; details: foliage application
How it was run: as §1

[3] = test system: directly sowed Oryza sativa; assay: Test Example 3: effect on crop by application to foliage (Wagner pot, water depth 0.1-0.5 cm); details: Nineteenth Table, application to foliage
How it was run: (§2)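 Wagner pot foliar test: sow, grow 14 d (25–30 °C), spray diluted emulsion at set g/ha, score after 3 wk; 0 ≤5%, 5 ≥90% herbicidal ratio.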

Alopecurus myosuroides = assay: Test Example 4: herbicidal effect by application to foliage (diluvial soil, plastic box); details: foliage application
How it was run: as §1

Stellaria media = assay: as above; details: foliage application
How it was run: as §1

Avena fatua = assay: as above; details: foliage application
How it was run: as §1

Amaranthus retroflexus = assay: as above; details: foliage application
How it was run: as §1

Chenopodium album = assay: as above; details: foliage application
How it was run: as §1

Setaria viridis = assay: as above; details: foliage application
How it was run: as §1

Apera spica-venti. = assay: as above; details: foliage application
How it was run: as §1

[4] = test system: Echinochloa crus-galli var. crus-galli; assay: as above; details: foliage application
How it was run: as §1

Digitaria ciliaris = assay: as above; details: foliage application
How it was run: as §1

Abutilon theophrasti = assay: as above; details: foliage application
How it was run: as §1

Galium spurium = assay: as above; details: foliage application
How it was run: as §1

Lolium multiflorum Lam. = assay: as above; details: foliage application
How it was run: as §1

Leptochloa chinensis = assay: Test Example 3: herbicidal effect by application to foliage (Wagner pot, water depth 0.1-0.5 cm); details: Nineteenth Table, application to foliage
How it was run: as §2

[5] = test system: Echinochloa crus-galli var. crus-galli; assay: as above; details: Nineteenth Table, application to foliage
How it was run: as §2

Cyperus difformis = assay: as above; details: Nineteenth Table, application to foliage
How it was run: as §2

Veronica persica = assay: Test Example 4: herbicidal effect by application to foliage (diluvial soil, plastic box); details: Application herbicide amount 320 g/ha; foliage application
How it was run: as §1

[6] = application herbicide amount 131 g/ha
[7] = Application herbicide amount 320 g/ha
[8] = application herbicide amount 320 g/ha

For CC(C)c1nnc2c(C(=O)Nc3nnnn3C)ccc(-c3ccccc3)n12 [2-055], which “d (directly sowed Oryza sativa) effect on crop grade” value [1] is on record?
Its value is 1 (Herbicidal ratio of 5% or more and less than 20%).

And the “c (Glycine max) effect on crop grade” value (Glycine max; 131 g/ha)?
The value was 0 (Herbicidal ratio of 5% or less (almost no effect)).

And the “g (Brassica campestris L.) effect on crop grade” value (Brassica campestris L.; 131 g/ha)?
Its value is 0 (Herbicidal ratio of 5% or less (almost no effect)).

And the “e (Triticum aestivum) effect on crop grade” value (Triticum aestivum; 131 g/ha)?
Its value is 0 (Herbicidal ratio of 5% or less (almost no effect)).

What about the “f (Beta vulgaris ssp. vulgaris) effect on crop grade” value ([2]; 131 g/ha) of the same molecule?
The value was 1 (Herbicidal ratio of 5% or more and less than 20%).

What about the “b (Zea mays) effect on crop grade” value (Zea mays; 131 g/ha) of the same molecule?
The value was 0 (Herbicidal ratio of 5% or less (almost no effect)).

And the “b (effect on crop grade)” value [3, 6]?
The value was 0 (Herbicidal ratio of 5% or less (almost no effect)).

And the “J (Alopecurus myosuroides) herbicidal effect grade” value (Alopecurus myosuroides; 131 g/ha)?
The value was 0 (Herbicidal ratio of 5% or less (almost no effect)).

What about the “P (Stellaria media) herbicidal effect grade” value (Stellaria media; 131 g/ha) of the same molecule?
Its value is 4 (Herbicidal ratio of 70% or more and less than 90%).

And the “I (Avena fatua) herbicidal effect grade” value (Avena fatua; 131 g/ha)?
Its value is 0 (Herbicidal ratio of 5% or less (almost no effect)).

What about the “N (Amaranthus retroflexus) herbicidal effect grade” value (Amaranthus retroflexus; 131 g/ha) of the same molecule?
The value was 3 (Herbicidal ratio of 40% or more and less than 70%).

And the “O (Chenopodium album) herbicidal effect grade” value (Chenopodium album; 131 g/ha)?
The value was 5 (Herbicidal ratio of 90% or more (almost completely withered)).

And the “G (Setaria viridis) herbicidal effect grade” value (Setaria viridis; 131 g/ha)?
The value was 0 (Herbicidal ratio of 5% or less (almost no effect)).

What about the “L (Apera spica-venti.) herbicidal effect grade” value (Apera spica-venti.; 131 g/ha) of the same molecule?
The value was 0 (Herbicidal ratio of 5% or less (almost no effect)).

And the “H (Echinochloa crus-galli var. crus-galli) herbicidal effect grade” value ([4]; 131 g/ha)?
Its value is 0 (Herbicidal ratio of 5% or less (almost no effect)).

What about the “F (Digitaria ciliaris) herbicidal effect grade” value (Digitaria ciliaris; 131 g/ha) of the same molecule?
The value was 0 (Herbicidal ratio of 5% or less (almost no effect)).

And the “M (Abutilon theophrasti) herbicidal effect grade” value (Abutilon theophrasti; 131 g/ha)?
Its value is 4 (Herbicidal ratio of 70% or more and less than 90%).

And the “Q (Galium spurium) herbicidal effect grade” value (Galium spurium; 131 g/ha)?
The value was 0 (Herbicidal ratio of 5% or less (almost no effect)).

What about the “K (Lolium multiflorum Lam.) herbicidal effect grade” value (Lolium multiflorum Lam.; 131 g/ha) of the same molecule?
Its value is 0 (Herbicidal ratio of 5% or less (almost no effect)).

What about the “D (herbicidal effect grade)” value (Leptochloa chinensis; [6]) of the same molecule?
Its value is 0 (Herbicidal ratio of 5% or less (almost no effect)).

And the “H (herbicidal effect grade)” value [5, 6]?
The value was 2 (Herbicidal ratio of 20% or more and less than 40%).

And the “E (herbicidal effect grade)” value (Cyperus difformis; [6])?
The value was 0 (Herbicidal ratio of 5% or less (almost no effect)).

COC(=O)CSc1nnc2c(C(=O)Nc3nnc(C)o3)ccc(C(F)(F)F)n12 [1-127] was tested. Which “d (Glycine max) effect on crop grade” value (Glycine max; [7]) did it give?
Its value is 1 (Herbicidal ratio of 5% or more and less than 20%).

And the “g (Brassica campestris L.) effect on crop grade” value (Brassica campestris L.; [7])?
Its value is 0 (Herbicidal ratio of 5% or less (almost no effect)).

What about the “e (Triticum aestivum) effect on crop grade” value (Triticum aestivum; [7]) of the same molecule?
Its value is 0 (Herbicidal ratio of 5% or less (almost no effect)).

And the “f (Beta vulgaris ssp. vulgaris) effect on crop grade” value [2, 7]?
Its value is 2 (Herbicidal ratio of 20% or more and less than 40%).

And the “c (Zea mays) effect on crop grade” value (Zea mays; [7])?
Its value is 0 (Herbicidal ratio of 5% or less (almost no effect)).

What about the “b (effect on crop grade)” value [3, 8] of the same molecule?
The value was 0 (Herbicidal ratio of 5% or less (almost no effect)).

And the “J (Alopecurus myosuroides) herbicidal effect grade” value (Alopecurus myosuroides; [7])?
The value was 0 (Herbicidal ratio of 5% or less (almost no effect)).

What about the “P (Stellaria media) herbicidal effect grade” value (Stellaria media; [7]) of the same molecule?
Its value is 3 (Herbicidal ratio of 40% or more and less than 70%).

What about the “I (Avena fatua) herbicidal effect grade” value (Avena fatua; [7]) of the same molecule?
Its value is 0 (Herbicidal ratio of 5% or less (almost no effect)).

And the “N (Amaranthus retroflexus) herbicidal effect grade” value (Amaranthus retroflexus; [7])?
Its value is 1 (Herbicidal ratio of 5% or more and less than 20%).

What about the “O (Chenopodium album) herbicidal effect grade” value (Chenopodium album; [7]) of the same molecule?
Its value is 5 (Herbicidal ratio of 90% or more (almost completely withered)).

What about the “G (Setaria viridis) herbicidal effect grade” value (Setaria viridis; [7]) of the same molecule?
The value was 1 (Herbicidal ratio of 5% or more and less than 20%).

And the “L (Apera spica-venti.) herbicidal effect grade” value (Apera spica-venti.; [7])?
Its value is 0 (Herbicidal ratio of 5% or less (almost no effect)).

What about the “H (Echinochloa crus-galli var. crus-galli) herbicidal effect grade” value [4, 7] of the same molecule?
Its value is 4 (Herbicidal ratio of 70% or more and less than 90%).

And the “F (Digitaria ciliaris) herbicidal effect grade” value (Digitaria ciliaris; [7])?
Its value is 1 (Herbicidal ratio of 5% or more and less than 20%).

What about the “M (Abutilon theophrasti) herbicidal effect grade” value (Abutilon theophrasti; [7]) of the same molecule?
Its value is 2 (Herbicidal ratio of 20% or more and less than 40%).

And the “R (Veronica persica) herbicidal effect grade” value (Veronica persica)?
The value was 1 (Herbicidal ratio of 5% or more and less than 20%).

And the “Q (Galium spurium) herbicidal effect grade” value (Galium spurium; [7])?
Its value is 0 (Herbicidal ratio of 5% or less (almost no effect)).

What about the “K (Lolium multiflorum Lam.) herbicidal effect grade” value (Lolium multiflorum Lam.; [7]) of the same molecule?
Its value is 0 (Herbicidal ratio of 5% or less (almost no effect)).

And the “D (herbicidal effect grade)” value (Leptochloa chinensis; [8])?
The value was 4 (Herbicidal ratio of 70% or more and less than 90%).

What about the “H (herbicidal effect grade)” value [5, 8] of the same molecule?
Its value is 4 (Herbicidal ratio of 70% or more and less than 90%).

What about the “E (herbicidal effect grade)” value (Cyperus difformis; [8]) of the same molecule?
Its value is 3 (Herbicidal ratio of 40% or more and less than 70%).
